Assays:
Type in all cases: functional
Rattus norvegicus [1] = species: Rattus norvegicus; test: % inhibition of cyclic AMP production in homogenates of rat corpus striatum pre-incubated with 30 uM of NCA and 0 uM of DA
Rattus norvegicus [2] = species: Rattus norvegicus; test: % stimulation of cyclic AMP production in homogenates of rat corpus striatum preincubated with 30 uM of NCA and 0 uM of DA
Rattus norvegicus [3] = species: Rattus norvegicus; test: % stimulation of cyclic AMP production in homogenates of rat corpus striatum pre-incubated with 10 uM of NCA and 0 uM of DA
Rattus norvegicus [4] = species: Rattus norvegicus; test: % stimulation of cyclic AMP production in homogenates of rat corpus striatum pre-incubated with 0 uM of NCA and 0 uM of DA
Rattus norvegicus [5] = species: Rattus norvegicus; test: % inhibition of cyclic AMP production in homogenates of rat corpus striatum pre-incubated with 10 uM of NCA and 0 uM of DA
Rattus norvegicus [6] = species: Rattus norvegicus; test: % inhibition of cyclic AMP production in homogenates of rat corpus striatum pre-incubated with 0 uM of NCA and 0 uM of DA
Rattus norvegicus [7] = species: Rattus norvegicus; test: % inhibition of cyclic AMP production in homogenates of rat corpus striatum pre-incubated with 0 uM of NCA and 50 uM of DA
Rattus norvegicus [8] = species: Rattus norvegicus; test: % stimulation of cyclic AMP production in homogenates of rat corpus striatum pre-incubated with 30 uM of NCA and 50 uM of DA
Rattus norvegicus [9] = species: Rattus norvegicus; test: % stimulation of cyclic AMP production in homogenates of rat corpus striatum pre-incubated with 75 uM of NCA and 0 uM of DA
Rattus norvegicus [10] = species: Rattus norvegicus; test: % stimulation of cyclic AMP production in homogenates of rat corpus striatum pre-incubated with 0 uM of NCA and 50 uM of DA
Rattus norvegicus [11] = species: Rattus norvegicus; test: % inhibition of cyclic AMP production in homogenates of rat corpus striatum pre-incubated with 30 uM of NCA and 50 uM of DA
Rattus norvegicus [12] = species: Rattus norvegicus; test: % inhibition of cyclic AMP production in homogenates of rat corpus striatum pre-incubated with 75 uM of NCA and 0 uM of DA

Q: How did the inhibition (Rattus norvegicus [1]) turn out when `Oc1ccc2c(c1O)-c1cccc3c1[C@@H](C2)N(CCCl)CC3` was run?
A: 56%

Q: What about the Stimulation (Rattus norvegicus [2]) of the same compound?
A: 43.9%

Q: And the Stimulation (Rattus norvegicus [3])?
A: 83.9%

Q: And the Stimulation (Rattus norvegicus [4])?
A: 100%

Q: And the inhibition (Rattus norvegicus [5])?
A: 16%

Q: What about the inhibition (Rattus norvegicus [6]) of the same compound?
A: 0%

Q: And the inhibition (Rattus norvegicus [7])?
A: 2%

Q: And the Stimulation (Rattus norvegicus [8])?
A: 103%

Q: What about the Stimulation (Rattus norvegicus [9]) of the same compound?
A: 8.1%

Q: What about the Stimulation (Rattus norvegicus [10]) of the same compound?
A: 98%

Q: What about the inhibition (Rattus norvegicus [11]) of the same compound?
A: 3%

Q: And the inhibition (Rattus norvegicus [12])?
A: 92%

— ChEMBL document CHEMBL1121605, “Aporphines. 30. (-)-N(2-chloroethyl)-10,11-dihydroxynor-aporphine (chloroethylnorapomorphine), a novel irreversible dopamine receptor antagonist” (J Med Chem, 1980)
